Data taken from ChEMBL document CHEMBL6182840, “A review of click chemistry in the synthesis of organophosphorus triazoles and their biological activities” (Eur J Med Chem, 2025).

Key:
[1] = Cytotoxicity against human PBMC cells assessed as reduction in cell viability by MTS assay; type: functional, cell-based
Hepatitis B virus = assay: Antiviral activity against HBV infected in human Huh-7 cells assessed as inhibition of HBV DNA production at 10 uM relative to control; type: functional
HepG2 = assay: Cytotoxicity against human HepG2 cells assessed as reduction in cell viability by MTS assay; type: functional, cell-based
MCF7 [2] = assay: Cytotoxicity against human MCF7 cells assessed as reduction in cell growth by MTT assay; type: functional, cell-based
[3] = Cytotoxicity against human HEF cells assessed as reduction in cell growth by MTT assay; type: functional, cell-based
HCT-116 [4] = assay: Cytotoxicity against human HCT-116 cells assessed as reduction in cell growth by MTT assay; type: functional, cell-based
HCT-116 [5] = assay: Cytotoxicity against human HCT-116 cells assessed as reduction in cell viability incubated for 72 hrs by MTT assay; type: functional, cell-based; settings: HCT-116, 72 h
PC-3 = assay: Cytotoxicity against human PC-3 cells assessed as reduction in cell viability incubated for 72 hrs by MTT assay; type: functional, cell-based; settings: PC-3, 72 h
MCF7 [6] = assay: Cytotoxicity against human MCF7 cells assessed as reduction in cell viability incubated for 72 hrs by MTT assay; type: functional, cell-based; settings: MCF7, 72 h
A549 = assay: Cytotoxicity against human A549 cells assessed as reduction in cell viability incubated for 72 hrs by MTT assay; type: functional, cell-based; settings: A549, 72 h
Caov-3 cell line = assay: Cytotoxicity against human Caov-3 cell line assessed as reduction in cell viability incubated for 72 hrs by MTT assay; type: functional, cell-based; settings: Caov-3, 72 h
[7] = molecular target: T1, 4-galactosyl-N-acetylglucosaminide 3-alpha-L-fucosyltransferase FUT6 (Homo sapiens, UniProt P51993); assay: Inhibition of human FUT6
T1 sequence (P51993 whole entry): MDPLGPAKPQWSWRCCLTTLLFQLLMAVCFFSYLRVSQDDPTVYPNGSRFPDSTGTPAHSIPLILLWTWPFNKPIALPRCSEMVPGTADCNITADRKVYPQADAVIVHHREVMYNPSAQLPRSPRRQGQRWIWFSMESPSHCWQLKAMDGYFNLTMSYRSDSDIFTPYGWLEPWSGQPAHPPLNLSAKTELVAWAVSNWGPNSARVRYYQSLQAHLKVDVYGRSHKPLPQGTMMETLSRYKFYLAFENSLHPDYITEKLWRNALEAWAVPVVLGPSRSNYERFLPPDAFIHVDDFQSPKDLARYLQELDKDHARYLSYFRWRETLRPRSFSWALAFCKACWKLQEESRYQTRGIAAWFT

| Structure (SMILES) | IC50 (HCT-116 [5]) [nM] | IC50 (PC-3) [nM] | IC50 (MCF7 [6]) [nM] | IC50 (A549) [nM] | IC50 (Caov-3 cell line) [nM] | other results |
| --- | --- | --- | --- | --- | --- | --- |
| CCCCCCCCCCCCCCCCOCCCOP(=O)(C/C=C(\C)Cn1cc(C(N)=O)nn1)OCOC(=O)OC(C)C (stereo not given) |  |  |  |  |  | IC50 [1]: 43100 nM; inhibition at 10 µM (Hepatitis B virus): 62%; IC50 (HepG2): 66400 nM |
| CCOP(=O)(OCC)C(Cc1cn(CCN2C/C(=C\c3ccc([N+](=O)[O-])cc3)C(=O)/C(=C/c3ccc([N+](=O)[O-])cc3)C2)nn1)P(=O)(OCC)OCC |  |  |  |  |  | IC50 (MCF7 [2]): 5000 nM; IC50 [3]: 5000 nM; IC50 (HCT-116 [4]): 5000 nM |
| CCOP(=O)(CCCn1cc(CN2C/C(=C\c3ccc(C#N)cc3)C(=O)/C(=C/c3ccc(C#N)cc3)C2)nn1)OCC | 1500 | 1500 | 1500 | 1500 | 1500 |  |
| CCOP(=O)(CCCCn1cc(CN2C/C(=C\c3ccc([N+](=O)[O-])cc3)C(=O)/C(=C/c3ccc([N+](=O)[O-])cc3)C2)nn1)OCC | 1500 | 1500 | 1500 | 1500 | 1500 |  |
| CCOP(=O)(CCCn1cc(CN2C/C(=C\c3ccc([N+](=O)[O-])cc3)C(=O)/C(=C/c3ccc([N+](=O)[O-])cc3)C2)nn1)OCC | 1500 | 1500 | 1500 | 1500 | 1500 |  |
| Nc1nc2c(ncn2[C@@H]2O[C@H](COP(=O)(O)OP(=O)(O)OCc3cn(CCCCC(=O)NCc4ccc(-c5ccccc5)cc4)nn3)[C@@H](O)[C@H]2O)c(=O)[nH]1 |  |  |  |  |  | IC50 [7]: 610 nM |
| CCOP(=O)(CCCCn1cc(CN2C/C(=C\c3ccc(C#N)cc3)C(=O)/C(=C/c3ccc(C#N)cc3)C2)nn1)OCC | 1500 | 1500 | 1500 | 1500 | 1500 |  |
| CCOP(=O)(OCC)C(Cc1cn(CCN2C/C(=C\c3ccc(C#N)cc3)C(=O)/C(=C/c3ccc(C#N)cc3)C2)nn1)P(=O)(OCC)OCC |  |  |  |  |  | IC50 (MCF7 [2]): 5000 nM; IC50 [3]: 5000 nM; IC50 (HCT-116 [4]): 5000 nM |
| CCOP(=O)(CCCn1cc(CN2C/C(=C\c3ccc(F)cc3)C(=O)/C(=C/c3ccc(F)cc3)C2)nn1)OCC | 1500 | 1500 | 1500 | 1500 | 1500 |  |
